{"source": "patent US6334999B1", "about": "“Liposomal aerosols for delivery of chemotherapeutic retinoids to the lungs” (Research Development Foundation, priority 1999, dated 2002)", "origin": "cited, not measured here", "settings": "mouse, in vivo", "data": [{"compound": "CC1=C(/C=C/C(C)=C/C=C/C(C)=C/C(=O)O)C(C)(C)CCC1", "note": "[free ATRA, all-trans-retinoic acid]", "values": [{"measurement": "dose exerting toxic effects", "value": "25-30 mg/kg of body weight"}]}]}
